The text below walks through data of US5929082A, “Potassium ion channel blockers” (priority 1995, dated 1999).

Data set [1] can be described thus: Kinetic/metabolite studies: HPLC analysis of plasma after oral administration. In kind it is in vivo, Sprague-Dawley rats. Conditions: for Compound in plasma / metabolites observed in plasma: after oral administration, HPLC; for metabolites observed in plasma: in words; for time within which the compound is metabolised after administration: oral administration. The procedure: Plasma samples were collected in order to test the correlation of plasma drug (or metabolite) concentration with hypoglycaemic activity, and to determine whether compounds of the invention were converted in vivo into active metabolites. The plasma levels of test compounds or metabolites also give an indication of rate of metabolism and kinetics of drug action.
Blood samples collected from rats treated as above and collected at the same intervals were analysed using an ICI LC1150 HPLC system and a LC1210 UV detector at a wavelength of 227 nm. The HPLC system used a Merck LiChroCART 125-4 LiChrosphere 100 RP-18 HPLC and LiChrosphere 100 RP-18 guard columns. The mobile phase consisted of 70% acetonitrile and a 30% aqueous sodium phosphate buffer at pH 7.45 and was prepared using standard HPLC grade reagents and distilled water. To improve the resolution of peaks and separation of the compounds a gradient method was established where changes in the concentration of the required buffers and solvents, and the time at which these changes occur is outlined in Table 7. The volumes are expressed as percentages of the total flow rate, with the flow rate remaining constant at […].
The data were acquired using the WinChrom Data Management system and were calibrated using stock solutions of the test compounds and Glibenclamide as an internal standard dissolved in 100% methanol
Plasma (250 μL) collected from the rats were extracted into methanol (700 μL) and 50 μL of Glibenclamide (25 μg/ml). The mixture was then agitated with a vortex mixer for 15 sec and centrifuged for 10 min. The clear supernatant was then carefully aspirated for HPLC analysis.
The results are outlined in Table 8 and show retention times (minutes) for the compounds and their metabolites as analysed by HPLC after oral administration in Sprague-Dawley rats. […] Glibenclamide is shown for comparison only, none of the metabolites observed with the test compounds correspond to metabolites of Glibenclamide.

A short description of data set [2]: Hypoglycaemic activity: change in blood glucose after oral gavage. In kind it is in vivo, Sprague Dawley rats. Conditions: 1.6 mg/kg oral gavage, normal fed male rats. The method, then:
The biological activity of representative compounds of the invention was evaluated by means of several different tests. The activity of compounds of this invention as hypoglycaemic agents was measured and compared with the activity of the known compound of Example 1, using methods described in the literature. Thus normal, fed male Sprague Dawley rats weighing between 275 and 375 g were studied for changes in blood sugar levels and alterations to mean arterial blood pressure following administration of representative compounds of the invention suspended in a 5% solution of gum acacia by oral gavage at a dose of 1.6 mg/kg. The concentration of each compound was 4 mg in 10 ml, so that each rat received 1.1-1.5 ml to obtain the desired dose on a body weight basis. The blood sugar levels were recorded for each rat immediately prior to administration, and at 1, 2, and 3 hr following administration of the test compounds. Blood glucose levels were determined on blood samples taken from the tail, and analysed on an Ames blood glucometer, model 5626, and Ames, 2627 blood glucose strips (number 2). […] It is apparent that generally the heterocyclic sulphonylthioureas have greater activity than the sulphonylureas. Without wishing to be bound by any proposed mechanism for the observed effect, we believe that this may be associated with differences in lipid permeability.

For data set [3], the system named is MCF-7 human mammary carcinoma cells. The data set can be described thus: Cell proliferation of MCF-7 tumour cells. In kind it is cell-based. The conditions noted are these: 100 μM compound. The procedure: The ability of a representative compound of the invention to inhibit proliferation of a tumour cell line was examined. MCF-7 human mammary carcinoma cells (Woodfork et al, 1995) were grown in 25 cm^2 Corning flasks in a 5% CO2 water jacket incubator. The medium used for the culture was RPMI 1640 (ICN) and was supplemented with 10% foetal Bovine serum (Cytosystems).
Cells and medium were examined daily to check for growth and infection. The medium was changed every second day. When cells reached 70-80% confluence, the cells were trypsinized with 0.05% trypsin (1:250, "DIFCO") and 0.02% EDTA.
The flasks were firstly washed with a phosphate buffer to remove residual RPMI 1640 medium, then covered with 2 mL of the trypsin solution and left in the incubator for 3-5 minutes. The cells were then transferred to a conical tube containing 2 mL of medium and 10% foetal bovine serum. The cells were centrifuged at 1000 rpm for 3 minutes and the supernatant removed 5 ml of the medium was then added to the pellet of cells and resuspended with a 2 ml pipette.
Approximately 10 μL of medium containing the cells was placed in a Neubauer haemocytometer, and the cells were counted in the 4×1 mm^2 grid per chamber. Cells were then diluted to contain 60×10^4 cells to be added to "Corning" 24 well plates (16 mm diameter). Wells respectively containing the control group and 100 μM compound 1-24 were established, and 3 wells/group/day were used to perform the cell growth study.
Each well contained 500 μL of medium or of compound 1-24. Plates were incubated for 24 hours before counting. The medium was aspirated with different pipette tips for the different study groups 100 μL of 0.02% EDTA solution was added to each well and incubated for 5 minutes. 200 μL of trypsin-EDTA was then added, and the cells incubated for a further 5 minutes, aspirated, and placed in 0.5 mL Eppendorf tubes before counting in a haemocytometer.

Data set [4] deals with isolated guinea pig atria. Nature of the data set: Cardiac effects on isolated atrial preparations. Set-up: species or system English short-haired guinea pigs. Conditions: bath concentration 8×10^-6 M, 37° C., maximum responses. The method, then: Preliminary investigations were performed on isolated atrial preparations, and the results obtained using representative compounds of the invention compared to those obtained using the known compound of Example 1 and using Glibenclamide. English short-haired guinea pigs weighing between 200 and 300 g were killed by cervical dislocation. The whole heart was quickly removed by dissection and immersed in a Krebs-Henseleit solution, which had been aerated with carbogen (95% oxygen and 5% carbon dioxide). The atria were then separated by dissection in Krebs-Henseleit solution, whilst being aerated with carbogen.
The atria were then immersed in a 10 ml organ bath containing Krebs-Henseleit solution, maintained at 37° C. for the duration of the experiment by the circulation of water through the water jackets of organ baths by a temperature controlled water pump (Braun Thermomix, Germany), and aerated with carbogen. […] Changes in tension were measured by isometric force transducers and were recorded on a four channel Grass 7P Polygraph (Grass Instruments, Quincy, Mass., USA) which was calibrated daily such that the atria functioned with a resting tension of 1 g. The rate of beating of the atria was measured by the tachograph.
The activity of each test compound was assessed and compared to that of glibenclamide. […]

Data set [5] concerns MCF-7 mammary carcinoma cells. Nature of the data set: Thymidine uptake ([methyl-3H] thymidine incorporation into DNA). In kind it is cell-based, human. Conditions: 100 μM (printed 100 μH / 100 mM), compared to control group; Glibenclamide n=3, Compound 1-24 n=4. The method, then: Incorporation of [methyl-3H] thymidine into DNA was measured as described by Murphy and Lazarus (1983), using MCF-7 mammary carcinoma cells treated with compound 1-24 (100 μH) and a control group. The growth medium from cells cultured as described in Example 24 was aspirated from the wells, and 1 mL of fresh growth medium containing 1 μCi [3H]-thymidine (Amersham) was added to each well After 4 hours incubation, the medium was aspirated and the monolayers were washed three times with ice cold phosphate buffered saline (ICN). This was followed by three washes with 10% (v/v) ice cold trichloroacetic acid, each of 5 minutes duration. After another three washes with absolute ethanol at room temperature of 5 minutes duration, the monolayer was dried at room temperature for 10 minutes. The monolayer was […] after incubation for 12 hours with 0.5 N NaOH and 1% Triton-X 100 (Sigma). An aliquot of the cell lysate was added to 10 ml of Ultima Gold (Packard) and counted using a liquid scintillation counter (Packard model 19006A).
Background: Uptake of a labelled nucleoside into DNA is a usual measure of proliferation.

The conditions of data set [6]: Cohen, 1986; cited from earlier work.

Turning to `CCOc1cccc(NC(=O)NS(=O)(=O)c2ccc(C)cc2)n1` [Compound 1-4, N-[(4-Methylphenyl)sulphonyl]-N'-(6-ethoxypyrid-2-yl)urea], in data set [1], the Compound in plasma entry is reported as “yes” and the “metabolites observed in plasma” value is “no metabolites were observed in the 4 hour period”.
For `Cc1ccc(S(=O)(=O)NC(=S)Nc2cccc(Br)n2)cc1` [Compound 1-21, N-[(4-Methylphenyl)sulphonyl]-N'-(6-bromopyrid-2-yl)thiourea], in data set [2], the “Change in Blood Glucose, 0 hours” value is 0.0 mmol/L; the “Change in Blood Glucose, 1 Hour” value is reported as -0.9 mmol/L; the “Change in Blood Glucose, 2 Hours” value was -2.1 mmol/L; the “Change in Blood Glucose, 3 Hours” value is -0.7 mmol/L.
Consider `CCOc1cccc(NC(=S)NS(=O)(=O)c2ccc(C)cc2)n1` [Compound 1-24], for which, in data set [3], the “doubling rate of control group greater than that of cells exposed to compound” value is recorded as “approximately 25%”. In addition, the “Rate of cell growth: mean cell number, Day 0” value in data set [3] (day 0, n=1 in triplicate) is recorded as 60,000. Further, in data set [3] (day 1, control 58,000), the “Rate of cell growth: mean cell number, Day 1” value is on record as 74,000. Further, the “Rate of cell growth: mean cell number, Day 2” value in data set [3] (day 2, control 110,000) was 93,000. In data set [3] (day 3, control 188,000), the “Rate of cell growth: mean cell number, Day 3” value is given as 143,000. Besides, the “Rate of cell growth: mean cell number, Day 6” value in data set [3] (day 6, control 355,000) is on record as 230,000. Further, the “effect on MCF-7 tumour cell proliferation” value in data set [3] (in words) is “reduces MCF-7 tumour cell proliferation”. In data set [2], the “Change in Blood Glucose, 0 hours” value is recorded as 0.0 mmol/L; the “Change in Blood Glucose, 1 Hour” value was 0.5 mmol/L; the “Change in Blood Glucose, 2 Hours” value is listed as -2.2 mmol/L; the “Change in Blood Glucose, 3 Hours” value is given as -1.8 mmol/L. In data set [1], the Compound in plasma result is “no”, the “metabolites observed in plasma” value is on record as “numerous metabolites in the plasma” and the “time within which the compound is metabolised after administration” value is ≤ 2 h. Besides, the inotropic activity result in data set [4] is listed as “particularly marked inotropic activity”. Moreover, in data set [5], the “inhibition of thymidine uptake” value was “significant inhibition”.
With `CCOc1cc(NC(=S)NS(=O)(=O)c2ccc(C)cc2)ccn1` [Compound 3-15, N-[(4-Methylphenyl)sulphonyl]-N'-(2-ethoxypyrid-4-yl)thiourea], in data set [1], the Compound in plasma entry is given as “no”, the “metabolites observed in plasma” value is “numerous metabolites in the plasma” and the “time within which the compound is metabolised after administration” value is ≤ 2 h.
On to `Cc1ccc(S(=O)(=O)NC(=S)Nc2ccncc2)cc1` [Compound 3-23, N-[(4-Methylphenyl)sulphonyl]-N'-(4-pyridyl)thiourea], for which, in data set [2], the “Change in Blood Glucose, 0 hours” value worked out at 0.0 mmol/L; the “Change in Blood Glucose, 1 Hour” value is listed as -1.0 mmol/L; the “Change in Blood Glucose, 2 Hours” value is -1.4 mmol/L; the “Change in Blood Glucose, 3 Hours” value is reported as -2.1 mmol/L. Also, in data set [4], the inotropic activity result is “particularly marked inotropic activity”.
On to `Cc1ccc(S(=O)(=O)NC(=S)Nc2nc(C)cc(C)n2)cc1` [Compound 4-36, N-[(4-Methylphenyl)sulphonyl]-N'-(4,6-dimethylypyrimid-2-yl)thiourea], for which, in data set [2], the “Change in Blood Glucose, 0 hours” value is reported as 0.0 mmol/L; the “Change in Blood Glucose, 1 Hour” value is -1.1 mmol/L; the “Change in Blood Glucose, 2 Hours” value is -1.6 mmol/L; the “Change in Blood Glucose, 3 Hours” value is listed as -1.3 mmol/L.
On the same counts, the results for `Cc1ccc(S(=O)(=O)NC(=O)Nc2nc(C)cc(C)n2)cc1` [Compound of Example 1, reference compound] are 0.0 mmol/L, -0.8 mmol/L, -2.1 mmol/L and -0.8 mmol/L.
With `CC(N/C(=N\C#N)Nc1ccncc1)C(C)(C)C` (stereo not drawn) [pinacidil], the vasodilator activity entry in data set [6] is recorded as “vasodilator activity”.
